Experiments:
[1] = Alizarin Red S (ARS) competitive assay, glucose as competitor; format: binding
Protocol: Stock solutions of test compounds, competitor (polyols, i.e., fructose and glucose), and Alizarin Red S (ARS) were dissolved in 0.1 mM Sodium Phosphate, pH 7.4. In a 96-well plate, stock solutions were combined to final concentrations of 20 μm ARS, 0.1 mM test compound, and varying competitor concentrations (0, 5, 10, 15, and/or 25 mM). Final solution (75 μL) was added to each plate well. Fluorescence data was acquired on Molecular Devices SpectraMax M2 with excitation at 456 nm and emission at 600 nm. In this assay, the selectivity of synthesized constructs for glucose was determined using the ARS competitive assay. Test articles were incubated with ARS and competitors (i.e. glucose and fructose) were added at varying concentrations. ARS fluorescence increases when the molecule interacts with boronic acids. The fluorescence was measured after the addition of the competitor. A decrease in fluorescence indicates the displacement of the ARS molecule by the sensor. All data were normalized to the fluorescence of an untreated solution (ARS bound to the sensing unit). […] This was not observed when FPBA was incubated with glucose. […] These are peptides modified to include glucose sensors at the lysyl residue. DA-Z4 is an L-diaminopropionic acid modified to include two benzoxoxaboroles. DA-Z16 is an D-diaminobutyric acid modified to include two benzoxaboroles. […]

[2] = Alizarin Red S (ARS) competitive assay, fructose as competitor; format: binding; conditions: 20 μm ARS, 0.1 mM test compound, competitor 0-25 mM, pH 7.4; a decrease means ARS is displaced
Protocol: Stock solutions of test compounds, competitor (polyols, i.e., fructose and glucose), and Alizarin Red S (ARS) were dissolved in 0.1 mM Sodium Phosphate, pH 7.4. In a 96-well plate, stock solutions were combined to final concentrations of 20 μm ARS, 0.1 mM test compound, and varying competitor concentrations (0, 5, 10, 15, and/or 25 mM). Final solution (75 μL) was added to each plate well. Fluorescence data was acquired on Molecular Devices SpectraMax M2 with excitation at 456 nm and emission at 600 nm.
In this assay, the selectivity of synthesized constructs for glucose was determined using the ARS competitive assay. Test articles were incubated with ARS and competitors (i.e. glucose and fructose) were added at varying concentrations. ARS fluorescence increases when the molecule interacts with boronic acids. The fluorescence was measured after the addition of the competitor. A decrease in fluorescence indicates the displacement of the ARS molecule by the sensor. All data were normalized to the fluorescence of an untreated solution (ARS bound to the sensing unit). […] This was not observed when FPBA was incubated with glucose. […] These are peptides modified to include glucose sensors at the lysyl residue. DA-Z4 is an L-diaminopropionic acid modified to include two benzoxoxaboroles. DA-Z16 is an D-diaminobutyric acid modified to include two benzoxaboroles. […]

Row | binding to glucose compared to monoboronic acids such as FPBA and FPBA KB28 PB29 ([1]; ARS data) | Compound | ARS fluorescence signal decrease when incubated with glucose ([1]; 20 μm ARS, 0.1 mM test compound, competitor 0-25 mM, pH 7.4) | ARS fluorescence signal when treated with fructose [2]
1 | stronger binding to glucose | O=C(NC[C@H](NC(=O)c1ccc2c(c1)B(O)OC2)C(=O)O)c1ccc2c(c1)B(O)OC2 [DA-Z4, (S)-2,3-bis(1-hydroxy-1,3-dihydrobenzo[c][1,2]oxaborole-6-carboxamido)propanoic acid] | – | –
2 | – | fluoro-phenylboronic acid [FPBA] | not observed | fluorescence signal decreases

Reference: patent publication US20220288213A1, “INSULIN ANALOGUES WITH GLUCOSE REGULATED CONFORMATIONAL SWITCH” (Thermalin Inc., priority 2019, published 2022)
